The text below walks through data of publication PMC6585474, “In vitro and in vivo Human Metabolism of (S)-[^18F]Fluspidine – A Radioligand for Imaging σ1 Receptors With Positron Emission Tomography (PET)” (Frontiers in Pharmacology, 2019).

Structures are written as SMILES. Where two headings read alike, the source gives them in different places.

For data set [1] the following is noted: RLM, NADPH, after 30 min; ref Wiese et al., 2016; cited from earlier work.
On the set-up of data set [2]: method as in Wiese et al., 2016. To be noted: mouse plasma, 30 min post injection; ref Wiese et al., 2016; cited from earlier work.
On the set-up of data set [3]: method as in Wiese et al., 2016. To be noted: mouse brain, 60 min post injection; ref Wiese et al., 2016; cited from earlier work.
A short description of data set [4]: Time- and concentration-dependent microsomal transformation of (S)-[^18F]1 (HLM, NADPH, radio-HPLC). It is filed as in vitro ADME, human. As to conditions: 37°C; for unchanged radioligand: after 30 min incubation; for time at which 50% of unchanged (S)-[^18F]1 could be detected: HLM. Here is the method: Respective amounts of a solution of (S)-1 of 0.1 mg/mL [<1 μM (referring to estimated molar activity; no addition of carrier), 2, and 20 μM] in acetonitrile were put into test tubes and the solvent was evaporated using the DB-3D TECHNE Sample Concentrator (Biostep, Jahnsdorf, Germany) at room temperature under a stream of nitrogen. PBS and HLM (1 mg/mL) and ∼5 MBq (S)-[^18F]1 (molar activity: 17 GBq/μmol, at the start of incubations) in 100 μl PBS were added, mixed vigorously, and pre-incubated at 37°C for 3 min. Analogously pre-incubated NADPH (2 mM) was added and mixtures were shaken gently at 37°C using the BioShake iQ (QUANTIFOIL Instruments, Jena, Germany). After 0, 2, 5, 10, 15, 20, 30, 40, 50, and 60 min, samples of 20 μL were taken and added to 80 μL cold acetonitrile (-20°C), followed by vigorous shaking (30 s), cooling on ice (4 min), and centrifugation at 14,000 rpm (10 min). Supernatants (90 μL) were diluted with water (30 μL) and immediately analyzed by radio-HPLC (system II).
System II: Analyses of samples from microsomal incubations to determine time and concentration dependency of microsomal transformation were performed on a JASCO X-LC system (JASCO Labor- und Datentechnik) equipped with a UV/Vis detector UV-2070 (monitoring at 210 nm) and a radioactivity flow detector GABI Star (raytest Isotopenmessgeräte, Straubenhardt, Germany) including NaI detector (2 × 2″ pinhole, 16 mm × 30 mm). […] The isocratic solvent system consisted of water/acetonitrile 40:60 (v/v), containing NH4OAc (20 mM). Unchanged (S)-[^18F]1 eluted at a retention time of 4.1 min, whilst formed radiometabolites eluted at 0.6–2.2 min. The percentages of unchanged (S)-[^18F]1 were calculated from HPLC data as follows: Fraction of (S) - [^18F]1(%) = Peak area(S)-[18F]1/(Peak area(S)-[18F]1 + Peak arearadiometabolites) × 100%
In order to obtain basic information about the metabolic stability in vitro, the time course of the degradation of (S)-[^18F]1 was investigated in presence of different concentrations of (S)-1 [no-carrier-added (n.c.a., <1 μM) and carrier-added: 2 and 20 μM]. For that purpose, incubations were performed in PBS with HLM and NADPH at 37°C. At defined time points (until 60 min) samples were taken and added to cold acetonitrile to terminate the incubations. After centrifugation, the fractions of remaining (S)-[^18F]1 were determined by radio-HPLC.

A short description of data set [5]: Incubation of (S)-1 with HLM (NADPH, UDPGA) and detection of metabolites by LC-MS/MS. It is filed as in vitro ADME, human. As to conditions: 37°C, 120 min, LC-MS/MS (MRM). Here is the method: In the following, the final concentrations are provided in brackets. For incubations of (S)-[^18F]1 together with (S)-1 under conditions for oxidation and glucuronidation, a solution of (S)-1 of 0.1 mg/mL (2 μM) in acetonitrile was put into test tubes and the solvent was evaporated using the DB-3D TECHNE Sample Concentrator (Biostep) at room temperature under a stream of nitrogen. HLM (1 mg/mL) and alamethicin (50 μg/mL, from methanolic solution) were mixed ([Fisher et al., 2000]), kept on ice for 15 min and added to the test tubes. PBS, ∼5 MBq (S)-[^18F]1 in 20 μL PBS, and MgCl2 (2 mM) were added, mixed vigorously and the mixture was pre-incubated at 37°C for 3 min. After addition of analogously pre-incubated NADPH (2 mM) and UDPGA (5 mM), the incubations were continued by gentle shaking at 37°C for 120 min using the BioShake iQ (QUANTIFOIL Instruments). After termination by adding 1.0 mL of cold acetonitrile (-20°C) and vigorous mixing for 30 s, the mixtures were stored at 4°C for 5 min. […]
For selective detection of metabolites, MRM transitions, which covered products of, e.g., debenzylation, defluorination, single, and multiple oxygenations as well as single and multiple glucuronidation of (S)-1 or its intermediate metabolites, were monitored. After incubation of (S)-1 with HLM in presence of NADPH a series of metabolites (M1–M10) could be detected (Figure 4 and Table 1).

The conditions of data set [6]: human, in vivo.
Description: After injection of 244.6-290.4 MBq (mean: 265.5 MBq) of (S)-[^18F]1 into 8 healthy controls arterial blood samples (∼16 mL) were withdrawn at 10, 20, and 30 min. […] After 90 or 120 min, urine (∼8 mL) was collected and stored on ice. Plasma was obtained by centrifugation of blood samples at 7,000 rpm (UNIVERSAL 320 R, Hettich, Germany) for 7 min. Protein precipitation and extraction with acetonitrile was conducted as follows. Method A: 10 × 1.6 mL cold acetonitrile (-35°C) were added to 10 × 400 μL plasma, shaken for 3 min, cooled at 4°C for 5 min and centrifuged at 7,000 rpm (Eppendorf Centrifuge 5424) for 5 min. Supernatants were collected and the precipitates were extracted with 1.6 mL acetonitrile each. The combined supernatants were concentrated at 70°C under a flow of nitrogen (Sample Concentrator DB-3D TECHNE) to provide residual volumes of 40–70 μL, which were reconditioned by adding water to obtain samples of 100 μL, which were immediately analyzed by radio-HPLC (system I). Method B: similar to method A, using 2 × 8 mL cold acetonitrile (-35°C) and 2 × 2 mL plasma. After centrifugation, the precipitates were extracted with 2 × 4 mL acetonitrile.
System I: Analyses were performed on a JASCO LC-2000 system (JASCO Labor- und Datentechnik, Gross-Umstadt, Germany) including a UV-2070 UV–VIS detector (monitoring at 210 nm) online with a GABI Star radioactivity flow detector (raytest Isotopenmessgeräte, Straubenhardt, Germany) with a NaI detector (2 × 2″ pinhole, 16 mm × 30 mm). Chromatographic separations were achieved using a Multospher 120 RP 18 AQ-5μ-column, 250 mm × 4.6 mm, 5 μm, including pre-column, 10 mm × 4 mm (CS-Chromatographie Service, Langerwehe, Germany). The solvent system consisted of eluent A: water/acetonitrile, 95:5 (v/v), containing NH4OAc (20 mM) and eluent B: water/acetonitrile, 20:80 (v/v), containing NH4OAc (20 mM). […]
Urine samples, taken after 90 or 120 min post injection were measured by radio-HPLC without further preparation.
For data set [7] the following is noted: in vivo, cited from earlier work.
The conditions of data set [8]: rhesus monkey, in vivo; cited from earlier work.
Data set [9] deals with β-glucuronidase (Helix pomatia type H-3). Briefly: β-Glucuronidase cleavage of microsomal-formed metabolite M12. It is filed as in vitro ADME. To be noted: acetate buffer pH 4.5–5.0, 37°C, 2 h; M5 the only product observed. Here is the method: In order to investigate the cleavage of formed glucuronides (see section “β-Glucuronidase Cleavage of Microsomal-Formed Metabolite M12”), microsomal incubation of (S)-1 was performed in quadruplicate with higher amounts of the substrate and the reagents as follows (final concentrations in brackets): (S)-1 (200 μM), HLM (2 mg/mL), NADPH (4 mM), MgCl2 (5 mM), alamethicin (0.1 mg/mL), UDPGA (10 mM). After addition of acetonitrile, resulting mixtures were combined and further processing was proceeded as described above. The obtained sample was separated chromatographically using the HPLC system I (Section “Radio-HPLC”) with UV monitoring at 210 nm. […]
To 10 μL of a solution of metabolite M12 (Section “Incubation of (S)-[^18F]1 and Non-radioactive References for Identification of in vitro Metabolites and Radiometabolites”), 32 μL acetate buffer (NaOAc/AcOH, 100 mM, pH 4.5–5.0), and 8 μL β-glucuronidase from Helix pomatia Type H-3 (aqueous solution, ≥90,000 units/mL, final: ≥14,400 units/mL) were added. […] After centrifugation at 14,000 rpm (Eppendorf Centrifuge 5424) for 15 min, 40 μL of the supernatant was diluted with 60 μL of water and analyzed by LC-MS/MS monitoring the MRM transitions m/z 518.2/342.2 (as for glucuronides of mono-oxygenated metabolites, e.g., M12) and 342.2/91.1 (as for mono-oxygenated metabolites, e.g., M5).

Where [10] appears, read: HLM 1 mg/mL, PBS, n.c.a. (<1 μM).

Consider `FCCC1OC2(CCN(Cc3ccccc3)CC2)c2ccccc21` (racemic) [rac-1, racemic fluspidine], for which the “stability (intact compound)” value in data set [1] is given as approximately 13%.
Consider `[17F]CCC1OC2(CCN(Cc3ccccc3)CC2)c2ccccc21` (racemic) [rac-[^18F]1, racemic [^18F]fluspidine], for which the “fraction of unchanged rac-[^18F]1 in plasma” value in data set [2] is 89 ± 3%. The “unchanged radioligand in brain” value in [3] is 98%.
In turn, `FCC[C@@H]1OC2(CCN(Cc3ccccc3)CC2)c2ccccc21` [(S)-1, 1′ -benzyl-3-(2-fluoroethyl)-3H-spiro[2-benzofuran-1,4′ -piperidine]] had an unchanged radioligand in data set [4] (setting [10]) of 14%. Moreover, the defluorination result in [5] is “not observed”.
For the compound `[18F]CC[C@@H]1OC2(CCN(Cc3ccccc3)CC2)c2ccccc21` [(S)-[^18F]1, (S)-[^18F]fluspidine], in [4] (setting [10]), the unchanged radioligand amounted to 14%. Moreover, the “unchanged (S)-[^18F]1” value in data set [4] (HLM 1 mg/mL, PBS, n.c.a. (<1 μM), after 60 min) is on record as 3%. In addition, the results for the “time at which 50% of unchanged (S)-[^18F]1 could be detected” value in data set [4] (2 μM added (S)-1), in data set [4] (20 μM added (S)-1) and in data set [4] (n.c.a. (<1 μM)) were 10 min, 17 min and 10 min, respectively. Moreover, the “Fraction of (S)-[^18F]1 of the total activity in urine” value in [6] is recorded as 0.0–7.9%. Moreover, the “Fraction of (S)-[^18F]1 in urine” value in [6] (90 min) came out at 2.6%; in data set [6] (120 min), 2.5%. Moreover, the “radioligand remained unchanged in plasma” value in [7] (16 min) is listed as 48%; in data set [7] (0.5 h), 37%. Besides, in [8], the “fraction of the total activity in plasma” value is 50%.
Consider `O=C(O)[C@H]1OC(OC(CF)[C@@H]2OC3(CCN(Cc4ccccc4)CC3)c3ccccc32)[C@H](O)[C@@H](O)[C@@H]1O` (some centres unmarked) [M12], for which the “cleavage by β-glucuronidase” value in [9] was “cleaved completely”.
